In PubChem BioAssay AID2060617 (Molecular Pharmacology Branch, DTP, NCI, 2025):

Tested on: 485368-065-R4-J2-PDC spheroids with HUVEC/MSC, viability
Test: Anticancer human tumor 485368-065-R4-J2-PDC patient-derived pancreatic carcinoma cell line growth inhibition [CLK]
Conditions: for IC50: curve of first compound; for viability, T/C: stronger effect = lower value
Outline: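 Multi-cell-type spheroids combined patient-derived tumor cells with HUVEC endothelial cells and human mesenchymal stem cells. Paired agents were dosed in half-log steps down from about clinical Cmax, or from 10 microM where Cmax was unknown.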
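Further: spheroids exposed to compounds for seven days.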
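Wherever viability, T/C is given: 100% = DMSO vehicle control wells.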

Question: Which IC50 (second compound 0.0316 µM) does the source give for `CC(C)CC(NC(=O)C(Cc1ccccc1)NC(=O)c1cnccn1)B(O)O` (centres undefined) + CNC(=O)c1ccc(Nc2nc(OC3CCCC3)c3c(-c4ccc5nc(C)oc5c4)c[nH]c3n2)c(OC)c1 here?
Answer: The IC50 was 7.22 nM.

Question: What about the IC50 (second compound 0.1 µM) of the same compound?
Answer: Its IC50 is 7.19 nM.

Question: What about the IC50 (second compound 0.316 µM) of the same compound?
Answer: The IC50 was 7.21 nM.

Question: And the IC50 (second compound 1 µM)?
Answer: Its IC50 is 6.69 nM.

Question: What about the IC50 (second compound 3.16 µM) of the same compound?
Answer: Its IC50 is 5.66 nM.

Question: And the IC50 (second compound 10 µM)?
Answer: Its IC50 is 4.91 nM.

Question: What about the viability, T/C (second compound 0.0316 µM, first compound 0.000949 µM) of the same compound?
Answer: Its viability, T/C is 99.6%.

Question: What about the viability, T/C (second compound 0.0316 µM, first compound 0.003 µM) of the same compound?
Answer: Its viability, T/C is 122%.

Question: What about the viability, T/C (second compound 0.0316 µM, first compound 0.00949 µM) of the same compound?
Answer: Its viability, T/C is 31.1%.

Question: And the viability, T/C (second compound 0.0316 µM, first compound 0.03 µM)?
Answer: Its viability, T/C is 16.4%.

Question: And the viability, T/C (second compound 0.0316 µM, first compound 0.0949 µM)?
Answer: The viability, T/C was 13.2%.

Question: And the viability, T/C (second compound 0.0316 µM, first compound 0.3 µM)?
Answer: The viability, T/C was 3.24%.

Question: What about the viability, T/C (second compound 0.1 µM, first compound 0.000949 µM) of the same compound?
Answer: Its viability, T/C is 95.3%.

Question: And the viability, T/C (second compound 0.1 µM, first compound 0.003 µM)?
Answer: The viability, T/C was 115%.

Question: And the viability, T/C (second compound 0.1 µM, first compound 0.00949 µM)?
Answer: Its viability, T/C is 32.5%.

Question: What about the viability, T/C (second compound 0.1 µM, first compound 0.03 µM) of the same compound?
Answer: Its viability, T/C is 13.6%.

Question: And the viability, T/C (second compound 0.1 µM, first compound 0.0949 µM)?
Answer: Its viability, T/C is 11.8%.

Question: What about the viability, T/C (second compound 0.1 µM, first compound 0.3 µM) of the same compound?
Answer: Its viability, T/C is 3.58%.

Question: What about the viability, T/C (second compound 0.316 µM, first compound 0.000949 µM) of the same compound?
Answer: Its viability, T/C is 94.3%.

Question: And the viability, T/C (second compound 0.316 µM, first compound 0.003 µM)?
Answer: Its viability, T/C is 112%.

Question: What about the viability, T/C (second compound 0.316 µM, first compound 0.00949 µM) of the same compound?
Answer: Its viability, T/C is 33.4%.

Question: And the viability, T/C (second compound 0.316 µM, first compound 0.03 µM)?
Answer: The viability, T/C was 12.5%.

Question: What about the viability, T/C (second compound 0.316 µM, first compound 0.0949 µM) of the same compound?
Answer: The viability, T/C was 10.1%.

Question: What about the viability, T/C (second compound 0.316 µM, first compound 0.3 µM) of the same compound?
Answer: Its viability, T/C is 3.9%.

Question: What about the viability, T/C (second compound 1 µM, first compound 0.000949 µM) of the same compound?
Answer: Its viability, T/C is 102%.

Question: What about the viability, T/C (second compound 1 µM, first compound 0.003 µM) of the same compound?
Answer: Its viability, T/C is 101%.

Question: And the viability, T/C (second compound 1 µM, first compound 0.00949 µM)?
Answer: Its viability, T/C is 28%.

Question: And the viability, T/C (second compound 1 µM, first compound 0.03 µM)?
Answer: The viability, T/C was 12.9%.

Question: And the viability, T/C (second compound 1 µM, first compound 0.0949 µM)?
Answer: The viability, T/C was 7.65%.

Question: And the viability, T/C (second compound 1 µM, first compound 0.3 µM)?
Answer: The viability, T/C was 1.74%.

Question: And the viability, T/C (second compound 3.16 µM, first compound 0.000949 µM)?
Answer: The viability, T/C was 89.4%.

Question: And the viability, T/C (second compound 3.16 µM, first compound 0.003 µM)?
Answer: Its viability, T/C is 89.7%.

Question: What about the viability, T/C (second compound 3.16 µM, first compound 0.00949 µM) of the same compound?
Answer: Its viability, T/C is 17.9%.

Question: What about the viability, T/C (second compound 3.16 µM, first compound 0.03 µM) of the same compound?
Answer: Its viability, T/C is 7.21%.

Question: And the viability, T/C (second compound 3.16 µM, first compound 0.0949 µM)?
Answer: Its viability, T/C is 5.69%.

Question: And the viability, T/C (second compound 3.16 µM, first compound 0.3 µM)?
Answer: The viability, T/C was 2.56%.

Question: What about the viability, T/C (second compound 10 µM, first compound 0.000949 µM) of the same compound?
Answer: Its viability, T/C is 77.9%.

Question: And the viability, T/C (second compound 10 µM, first compound 0.003 µM)?
Answer: The viability, T/C was 78.2%.

Question: What about the viability, T/C (second compound 10 µM, first compound 0.00949 µM) of the same compound?
Answer: The viability, T/C was 12.5%.

Question: And the viability, T/C (second compound 10 µM, first compound 0.03 µM)?
Answer: The viability, T/C was 5.34%.

Question: What about the viability, T/C (second compound 10 µM, first compound 0.0949 µM) of the same compound?
Answer: The viability, T/C was 4.07%.

Question: What about the viability, T/C (second compound 10 µM, first compound 0.3 µM) of the same compound?
Answer: Its viability, T/C is 1.36%.

Question: With `O=C(c1cc(Cc2n[nH]c(=O)c3ccccc23)ccc1F)N1CCN(C(=O)C2CC2)CC1` + CNC(=O)c1ccc(Nc2nc(OC3CCCC3)c3c(-c4ccc5nc(C)oc5c4)c[nH]c3n2)c(OC)c1 as the compound, how does the IC50 (second compound 0.0316 µM) read?
Answer: Its IC50 is greater than 10000 nM.

Question: What about the IC50 (second compound 0.1 µM) of the same compound?
Answer: Its IC50 is greater than 10000 nM.

Question: And the IC50 (second compound 0.316 µM)?
Answer: The IC50 was greater than 10000 nM.

Question: What about the IC50 (second compound 1 µM) of the same compound?
Answer: Its IC50 is greater than 10000 nM.

Question: What about the IC50 (second compound 3.16 µM) of the same compound?
Answer: The IC50 was greater than 10000 nM.

Question: And the IC50 (second compound 10 µM)?
Answer: Its IC50 is greater than 10000 nM.

Question: And the viability, T/C (second compound 0.0316 µM, first compound 0.0316 µM)?
Answer: Its viability, T/C is 88%.

Question: And the viability, T/C (second compound 0.0316 µM, first compound 0.1 µM)?
Answer: The viability, T/C was 101%.

Question: What about the viability, T/C (second compound 0.0316 µM, first compound 0.316 µM) of the same compound?
Answer: The viability, T/C was 94.5%.

Question: And the viability, T/C (second compound 0.0316 µM, first compound 1 µM)?
Answer: Its viability, T/C is 102%.

Question: And the viability, T/C (second compound 0.0316 µM, first compound 3.16 µM)?
Answer: The viability, T/C was 106%.

Question: What about the viability, T/C (second compound 0.0316 µM, first compound 10 µM) of the same compound?
Answer: The viability, T/C was 100%.

Question: And the viability, T/C (second compound 0.1 µM, first compound 0.0316 µM)?
Answer: The viability, T/C was 97.5%.

Question: And the viability, T/C (second compound 0.1 µM, first compound 0.1 µM)?
Answer: The viability, T/C was 106%.

Question: What about the viability, T/C (second compound 0.1 µM, first compound 0.316 µM) of the same compound?
Answer: Its viability, T/C is 104%.

Question: And the viability, T/C (second compound 0.1 µM, first compound 1 µM)?
Answer: The viability, T/C was 106%.

Question: And the viability, T/C (second compound 0.1 µM, first compound 3.16 µM)?
Answer: Its viability, T/C is 101%.

Question: What about the viability, T/C (second compound 0.1 µM, first compound 10 µM) of the same compound?
Answer: Its viability, T/C is 86.1%.

Question: And the viability, T/C (second compound 0.316 µM, first compound 0.0316 µM)?
Answer: The viability, T/C was 87.9%.

Question: And the viability, T/C (second compound 0.316 µM, first compound 0.1 µM)?
Answer: The viability, T/C was 91%.

Question: What about the viability, T/C (second compound 0.316 µM, first compound 0.316 µM) of the same compound?
Answer: The viability, T/C was 91.6%.

Question: And the viability, T/C (second compound 0.316 µM, first compound 1 µM)?
Answer: The viability, T/C was 83.7%.

Question: What about the viability, T/C (second compound 0.316 µM, first compound 3.16 µM) of the same compound?
Answer: The viability, T/C was 84.3%.

Question: And the viability, T/C (second compound 0.316 µM, first compound 10 µM)?
Answer: The viability, T/C was 81.7%.

Question: What about the viability, T/C (second compound 1 µM, first compound 0.0316 µM) of the same compound?
Answer: The viability, T/C was 83.6%.

Question: What about the viability, T/C (second compound 1 µM, first compound 0.1 µM) of the same compound?
Answer: The viability, T/C was 83.3%.

Question: And the viability, T/C (second compound 1 µM, first compound 0.316 µM)?
Answer: The viability, T/C was 86.2%.

Question: And the viability, T/C (second compound 1 µM, first compound 1 µM)?
Answer: Its viability, T/C is 78.3%.

Question: What about the viability, T/C (second compound 1 µM, first compound 3.16 µM) of the same compound?
Answer: Its viability, T/C is 78.8%.

Question: And the viability, T/C (second compound 1 µM, first compound 10 µM)?
Answer: The viability, T/C was 71.8%.

Question: And the viability, T/C (second compound 3.16 µM, first compound 0.0316 µM)?
Answer: Its viability, T/C is 75.9%.

Question: And the viability, T/C (second compound 3.16 µM, first compound 0.1 µM)?
Answer: Its viability, T/C is 77.6%.

Question: What about the viability, T/C (second compound 3.16 µM, first compound 0.316 µM) of the same compound?
Answer: The viability, T/C was 72.9%.

Question: What about the viability, T/C (second compound 3.16 µM, first compound 1 µM) of the same compound?
Answer: The viability, T/C was 73.5%.

Question: What about the viability, T/C (second compound 3.16 µM, first compound 3.16 µM) of the same compound?
Answer: The viability, T/C was 69.6%.

Question: And the viability, T/C (second compound 3.16 µM, first compound 10 µM)?
Answer: Its viability, T/C is 68.2%.

Question: And the viability, T/C (second compound 10 µM, first compound 0.0316 µM)?
Answer: Its viability, T/C is 76.3%.

Question: And the viability, T/C (second compound 10 µM, first compound 0.1 µM)?
Answer: The viability, T/C was 86.9%.

Question: What about the viability, T/C (second compound 10 µM, first compound 0.316 µM) of the same compound?
Answer: The viability, T/C was 77.5%.

Question: What about the viability, T/C (second compound 10 µM, first compound 1 µM) of the same compound?
Answer: Its viability, T/C is 76.5%.

Question: What about the viability, T/C (second compound 10 µM, first compound 3.16 µM) of the same compound?
Answer: Its viability, T/C is 77.3%.

Question: What about the viability, T/C (second compound 10 µM, first compound 10 µM) of the same compound?
Answer: Its viability, T/C is 59.3%.
